From patent US20260355168A1, “COMPOSITIONS AND METHODS FOR TREATING AND DETECTING CANCER” (CASE WESTERN RESERVE UNIVERSITY, priority 2022, published 2026)
Entries after “also recorded” stand apart in the source; their conditions may differ.

Tests used:
glioma cells = test: Glioma cell assays combined (scratch and sphere, several cell lines); format: cell-based, human; conditions: 100 μM; for Effect on glioma cells, overall: multiple assays and cell lines; for Effect on glioma cell migration: scratch assays
Method: FIG. 2 illustrates a schematic of a functional screening approach. Seventy-four PTPμ wedge-targeted compounds and 2 blinded DMSO samples were received from Atomwise and screened at 100 μM in scratch wound healing assays using two glioma cell lines (LN229 and U87). Selected active and control compounds were taken into secondary assays (Gli36 scratch and LN229 and Gli36 sphere formation and growth assays). Inhibitors selected as being active in primary and secondary screens were tested for effects on the survival of LN229 and Sf9 cells, and selected glioma-cell inhibitors and activators were screened for effects on Sf9-PTPμ aggregation, a highly specific test for PTPμ function.
(§1) Cells were seeded at a density of 2.7×10^4 cells per well into the internal wells of Incuyte1 Imagelock 96-well plates (Essen BioScience Inc., Ann Arbor, MI) and cultured overnight to form monolayers. Monolayers were wounded with an IncuCyte1 96-well Woundmaker Tool per the manufacturer's instructions. The outer wells were filled with PBS to buffer edge effects, and then the wounded monolayers were cultured in 100 μl of fresh media with compounds or DMSO (2×replicates at 100 μM or 1%, respectively) at 37 °C and 5% CO2. Images were captured every 4 hrs. using an Incucyte live cell imaging system equipped with the Scratch Wound Module. Scratch wound widths were calculated, per the manufacturer's instructions, at TO and at endpoint (typically T12 for LN229 and U87 cells and T8 for Gli36), which was taken as the last timepoint before wound closure. The cell migration distance was calculated from scratch widths [(T0Width−TendpointWidth)/2] and normalized to the average distance migrated by the DMSO controls. Values are presented as average percentages±standard errors of the means (s.e.m.). The majority of compounds were screened with an n of two, but the n for priority hits ranges from 2-6.
(§2) Cells were seeded at a density of 7500 cells per well into the internal wells of 96-well plates coated with 0.75% (wt/vol) PVA as previously described. Compounds were added (2×replicates per treatment) at the indicated final concentrations, and control wells were treated with matching concentrations of DMSO. The external wells of the plates were filled with PBS to buffer against edge effects, and the cells were incubated at 37 °C and 5% CO2 for 7 days. A Leica CTR6500 microscope fitted with an automated stage was used to capture brightfield images on day 1 and day 7, and sphere footprint areas were measured using Image J (v1.52a http://imagej.nih.gov/ij) as previously described. To quantify the effects of the compounds on day 1, the footprint areas of the treated wells were normalized to the average area of the matched DMSO control wells. To quantify the effects of the compounds on sphere growth, the change in the sphere footprint areas was calculated ([…]) and then normalized to the average size change of the matched DMSO samples. All values are presented as average percentages±s.e.m.

LN229 cells = test: LN229 scratch wound healing assay; format: cell-based, human; conditions: for activity at 100 µM: Homo sapiens, LN-229, normalized to DMSO controls, read-out: LN229 scratch wound closure relative to DMSO controls
Description: FIGS. 3(A-D) illustrate a histogram and images of the LN229 scratch wound assays. A. Histogram showing the effects of all soluble wedge-targeted compounds on LN229 scratch wound closure. Cell movement into the scratches was quantified from scratch wound widths at the start and end of the assay and normalized to the average movement of cells in the unblinded DMSO control samples. Data is presented as average percentages±standard error of the means (s.e.m.), and compound bar codes are shown on the x-axis. The majority of compounds were screened with an n=2. Some priority compounds were screened with 3-6 replicates. Representative endpoint images of samples treated with DMSO (B) and two priority inhibitors (C and D) are shown. The relative migration distances for each example are indicated.
as §1
Scratch assays measure the ability of cells to migrate into a wound and close it creating a monolayer.

PTPμ = PTPμ (Homo sapiens, UniProt P28827); test: PTPμ-dependent Sf9 aggregation assay; format: cell-based; conditions: 100 μM; 20 min pretreatment; in words
Gli36 cells = test: Gli36 glioma sphere formation and growth assay; format: cell-based, human; conditions: for Effect on Gli36 sphere formation: day 1; for Effect on Gli36 sphere formation / Effect on Gli36 sphere growth: in words
Method: FIGS. 6(A-E) illustrate a histogram and images showing the results of the Gli36 sphere formation and growth assays. Selected inhibitors, activators, and control compounds identified in LN229 and/or U87 scratch wound closure assays were retested at 100 μM in a secondary assay for glioma cell (Gli36) sphere formation and growth. A. Histogram showing the effects of the indicated compounds on Day 1 sphere footprint areas. Footprint areas were measured and normalized to the average footprint area of the unblinded DMSO-treated controls. On day 1, a larger footprint area indicates inhibition of aggregation. B. Histogram showing the effects of the indicated compounds on sphere growth. Changes in sphere footprint areas were calculated and normalized to the average size change of the unblinded vehicle-treated controls. On day 7, a smaller value indicates reduced growth. […] Data is presented as percentages±s.e.m. of 2-4 replicates. Representative images of samples treated with DMSO (C) and two priority inhibitors (D and E) are shown. Relative day 1 footprint areas and day 7 growth measurements are indicated for each example.
as §2

Sequence of PTPμ (P28827 21-1452): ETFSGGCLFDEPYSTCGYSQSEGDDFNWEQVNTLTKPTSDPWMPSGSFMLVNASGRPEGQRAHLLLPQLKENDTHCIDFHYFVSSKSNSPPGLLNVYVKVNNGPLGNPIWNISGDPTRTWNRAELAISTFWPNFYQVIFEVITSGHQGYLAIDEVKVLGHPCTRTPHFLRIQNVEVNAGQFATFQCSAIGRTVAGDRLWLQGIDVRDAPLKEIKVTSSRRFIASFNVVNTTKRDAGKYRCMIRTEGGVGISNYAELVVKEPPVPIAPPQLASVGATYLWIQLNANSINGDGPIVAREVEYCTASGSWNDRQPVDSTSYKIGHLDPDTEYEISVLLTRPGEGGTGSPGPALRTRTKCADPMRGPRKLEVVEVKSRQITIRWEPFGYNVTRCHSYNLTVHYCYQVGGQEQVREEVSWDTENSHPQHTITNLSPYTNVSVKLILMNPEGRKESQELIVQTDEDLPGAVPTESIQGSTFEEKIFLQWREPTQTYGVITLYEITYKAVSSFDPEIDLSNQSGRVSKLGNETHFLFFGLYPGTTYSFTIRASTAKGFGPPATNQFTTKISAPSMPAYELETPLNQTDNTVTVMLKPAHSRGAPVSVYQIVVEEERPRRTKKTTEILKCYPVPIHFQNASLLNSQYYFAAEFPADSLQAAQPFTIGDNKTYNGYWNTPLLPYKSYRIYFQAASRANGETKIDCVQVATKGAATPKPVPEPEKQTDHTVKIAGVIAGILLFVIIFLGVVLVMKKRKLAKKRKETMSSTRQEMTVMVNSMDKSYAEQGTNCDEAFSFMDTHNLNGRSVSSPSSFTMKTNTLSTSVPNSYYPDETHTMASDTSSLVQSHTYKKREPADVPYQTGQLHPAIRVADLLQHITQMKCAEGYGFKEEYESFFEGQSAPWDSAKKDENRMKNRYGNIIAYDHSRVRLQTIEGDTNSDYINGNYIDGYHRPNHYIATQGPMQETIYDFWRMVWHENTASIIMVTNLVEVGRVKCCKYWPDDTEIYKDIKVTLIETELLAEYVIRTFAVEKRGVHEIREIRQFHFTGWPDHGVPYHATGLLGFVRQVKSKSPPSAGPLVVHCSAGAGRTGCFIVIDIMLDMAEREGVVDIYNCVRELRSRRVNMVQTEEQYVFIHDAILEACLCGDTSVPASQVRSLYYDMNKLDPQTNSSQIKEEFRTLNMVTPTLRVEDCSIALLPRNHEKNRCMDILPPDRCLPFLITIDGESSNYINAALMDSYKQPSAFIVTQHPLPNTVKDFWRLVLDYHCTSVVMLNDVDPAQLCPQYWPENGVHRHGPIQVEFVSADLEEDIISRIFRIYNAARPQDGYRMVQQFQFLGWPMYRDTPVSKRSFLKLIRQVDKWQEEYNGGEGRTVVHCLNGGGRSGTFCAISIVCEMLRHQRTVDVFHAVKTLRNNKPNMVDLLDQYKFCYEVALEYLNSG

| SMILES | Effect on glioma cells, overall (glioma cells) | Effect on glioma cell migration (glioma cells) | Effect on LN229 cell morphology in scratch assay (LN229 cells; 100 μM) | activity at 100 µM (LN229 cells) [%] | Effect on PTPμ-dependent Sf9 aggregation / adhesion (PTPμ) | Effect on Gli36 sphere formation (Gli36 cells; 100 μM) | Effect on Gli36 sphere growth (Gli36 cells; 100 μM, day 7) | Effect on LN229 scratch wound closure / migration (LN229 cells; 100 μM, in words) | Gli36 sphere appearance (Gli36 cells; 100 μM, day 7) | activity at 100 µM (Gli36 cells; Homo sapiens, GLI36, 168 h, read-out: Gli36 sphere growth (indicated value; sample fell apart on day 1), growth could not be calculated, indicated as '0' growth) [%] |
| --- | --- | --- | --- | --- | --- | --- | --- | --- | --- | --- |
| O=C(NCc1nc(-c2ccncc2)no1)c1ccc(Cl)c(S(=O)(=O)NCc2ccccc2)c1 [Compound 247678791] | highly penetrant inhibitors; also recorded: able to inhibit glioma cells | able to inhibit glioma cell migration | subtle effects on the morphology of LN229 cells | < 60 | PTPμ-dependent adhesion; also recorded: inhibitors; also recorded: fewer/smaller aggregates; also recorded: affect PTPμ-mediated aggregation | slowed condensation of Gli36 cells | grew more slowly than controls | – | – | – |
| COc1cc(C)ccc1OCC(=O)Nc1nc(-c2c[nH]c(C(N)=O)c2)cs1 [Compound 247678835] | highly penetrant inhibitors; also recorded: able to inhibit glioma cells | able to inhibit glioma cell migration | rounded with no ruffles | < 60 | PTPμ-dependent adhesion; also recorded: inhibitors; also recorded: fewer/smaller aggregates; also recorded: strongest pan-inhibitor to affect PTPμ-dependent aggregation; also recorded: affect PTPμ-mediated aggregation | slowed aggregation of Gli36 cells | grew poorly | completely blocked the movement of cells into the scratch; also recorded: strongest inhibitor identified in the initial screen of LN229 migration | more optically translucent than control spheres on Day 7 | – |
| CCN(C(=O)CN1C(=O)NC(C)(CCC(C)C)C1=O)c1cccc2ccccc12 (stereo not shown) [Compound 247677616] | highly penetrant inhibitors in glioma cell assays | – | rounding | < 60 | not shown to affect PTPμ-mediated aggregation; also recorded: did not affect PTPμ-dependent adhesion | completely blocked Gli36 sphere formation; also recorded: fell apart on day 1 | – | – | – | 0 |
